# Data as given in patent US10945994B2, “Combinations comprising a pyrrolidine-2,5-dione IDO1 inhibitor and an anti-body” (Pfizer Inc., priority 2015, dated 2021).
# Like-named read-outs stand apart in the source and are kept apart here.
# Legend:
# [1] = molecular target: T1, IDO1 (Homo sapiens (Human), UniProt P14902); experiment: IDO1 enzymatic activity by mass spectrometry assay; type: biochemical; settings: human enzyme; varied tryptophan and inhibitor concentrations
# Description: (§1) The full length complementary deoxyribonucleic acid (cDNA) for human IDO1 was cloned into a pFastbac-1 based vector and the full length cDNA for mouse and dog was cloned into a pET24a based vector. […] Human IDO1 was expressed in insect cells and purified using Ni affinity column. The mouse and dog IDO1 were expressed in Escherichia coli BL21 (DE3) and purified using a Ni affinity column. To obtain non-tagged, pure, and hemin loaded IDO1, TEV protease treated and tag removed protein was incubated with 10× molar ratio of hemin (dissolved in 25 mM NaOH) to protein at 4° C. overnight followed by size exclusion chromatography (SEC) for human IDO1 and anion exchange and SEC for mouse and dog IDO1.
# The inhibition of human, dog and mouse IDO1 was measured by quantitating tryptophan and the generation of kynurenine by MS. […] The HCl stops the enzyme reactions and also converts the N-formyl kynurenine to kynurenine. […] Detection of tryptophan and kynurenine was accomplished following injection of assay reaction (injection loop volume is 10 μL) onto an Agilent Graphite Type D cartridge in 0.01% trifluoroacetic acid (TFA) plus 0.09% formic acid and eluted using 80% acetonitrile, 0.09% formic acid and 0.01% TFA. […]
# [2] = molecular target: dog IDO1 (Canis lupus familiaris, UniProt A0A8I3N1Y1); experiment: IDO1 enzymatic activity by mass spectrometry assay; type: biochemical; settings: dog enzyme; varied tryptophan and inhibitor concentrations
# Description: as §1
# (§2) The inhibition of human, dog and mouse IDO1 was measured by quantitating tryptophan and the generation of kynurenine by MS. IDO1 enzyme (1 nM) was incubated with various concentrations of the inhibitor ([…] to 1 nM), in duplicate, at room temperature in […] buffer (Mg2+, Ca2+−PBS, 20 mM ascorbic acid, 10 mM methylene blue, 800 nM catalase, […]). […] The HCl stops the enzyme reactions and also converts the N-formyl kynurenine to kynurenine. […] Detection of tryptophan and kynurenine was accomplished following injection of assay reaction (injection loop volume is 10 μL) onto an Agilent Graphite Type D cartridge in 0.01% trifluoroacetic acid (TFA) plus 0.09% formic acid and eluted using 80% acetonitrile, 0.09% formic acid and 0.01% TFA. The finalized RapidFire settings were as follows: aspiration time: 600 ms or until the loop is full per the sip sensor, load time: 5000 ms, elution time: 5000 ms, and re-equilibration time: 500 ms at a flow rate of 1.5 mL/min.
# [3] = molecular target: mouse IDO1 (Mus musculus (Mouse), UniProt P28776); experiment: IDO1 enzymatic activity by mass spectrometry assay; type: biochemical; settings: MS assay; geometric mean (95% confidence interval); read-out: Enzyme Activity IC50 mouse IDO1
# Description: as §1, §2
# [4] = molecular target: T2, TDO2 (Homo sapiens (Human), UniProt P48775); experiment: Human TDO2 enzymatic assay; type: biochemical
# Description: The protocol was adapted from Dolusic et al, 2011. Briefly, the reaction mixture ([…]) contained TRIS buffer (50 mM, pH 7.5), methylene blue (0.125 mM), ascorbic acid (0.25 M), catalase (40 units/mL) and human recombinant TDO2 enzyme (prepared as described in Dolusic et al, 2011; 0.9 mg) with increasing concentrations of compounds (1.0 nM to […]). The reaction was run with single replicate. The reaction was initiated by the addition of the substrate L-tryptophan (1 mM).
# [5] = molecular target: mouse TDO2 (Mus musculus (Mouse), UniProt P48776); experiment: TDO2 activity assay in P815 mouseTDO2 clone 12 cells; type: cell-based
# Description: P815 mTDO2 c112 cells were generated as described in Pilotte et al, Proc Natl Acad Sci, 109(7): 2497-2502 (2012). They were seeded in 96-well plates (50,000 cells/well), treated with increasing concentrations of compounds and incubated for 16-18 h. Kynurenine concentrations were determined as described above. The reaction was run with single replicate.
# [6] = system: IDO1-expressing SKOV3 cells co-cultured with human PBMC; experiment: T cell - SKOV3 co-culture assay with human serum (II.9); type: cell-based; settings: SK-OV-3, read-out: T-cell proliferation in SKOV3 co-culture system (50% serum) IDO1 IC50 ± SD (n)
# Description: Three different concentrations of human serum (10%, 25% or 50%) were used to mimic the consequences of protein binding in human. […] T cell proliferation was measured by incorporation of ^3H-thymidine after 48 h of co-culture. IC50 of T cell proliferation, tryptophan (Trp) decrease and kynurenine (Kyn) increase were determined. FIG. 7D illustrates Trp to Kyn conversion in 10% HS. […] FIG. 7F illustrates Trp to Kyn conversion in 50% HS. Tryptophan and kynurenine concentrations in supernatant were assessed using LC-MS/MS after 24 h of co-culture. […]
# Human peripheral blood mononuclear cells were isolated from buffy coats, purified by density gradient centrifugation on Lymphoprep™ (StemCell), stimulated with CD3/CD28 beads (Invitrogen) and hIL-2 (Novartis) in IMDM with 10%, 25% or 50% of HS, for 15 min and then added to the SKOV3 plates. […] After an incubation of 24 h, the tryptophan and kynurenine concentrations in conditioned medium were assessed using LC-MS/MS. ^3H-thymidine was added to the co-cultures for another 24 h incubation period. Thymidine incorporation was measured using a TopCount counter (Perkin Elmer). Data were fitted and IC50 determined by using the Prism™ software (GraphPad software Inc.).
# [7] = molecular target: T2, TDO2; experiment: TDO2 activity assay in A172 and THP-1 cells; type: cell-based; settings: for A172 and THP-1 cells TDO2 inhibition: @50 μM; for inhibitory activity in any of the human or mouse TDO2 assays: human biochemical and cellular, murine cellular, concentrations of up to 50 μM
# Description: A172 cells were seeded in 96-well plates (12500 cells/well), treated with increasing concentrations of compounds and incubated for 16-18 h at 37° C., 5% CO2. Then TCA was added to the supernatant to stop the reaction. […] Kynurenine concentrations were determined by measuring absorbance at 480 nm. The reaction was run with single replicate.
# THP-1 cells were stimulated with 2 ng/ml PMA for 24 h, then seeded in 96-well plates (100,000 cells/well), treated with 2 ng/ml PMA and increasing concentrations of compounds, and incubated for 24 h. Kynurenine concentrations were determined as described above. The reaction was run with single replicate.
# [8] = molecular target: T1, IDO1; experiment: Human whole blood assay (+ IFNγ/LPS); type: cell-based; settings: read-out: unbound IC90, human whole blood
# Description: Human whole blood was collected in sodium heparin and gently mixed. Then 25 mg/mL LPS (Sigma) and 100 ng/mL. IFNg (R&D) was added and transferred immediately to a 96-well U bottom plate, 200 mL per well. […] The final DMSO concentration was 0.5%. Following overnight incubation at 37° C., a 30 mL aliquot was precipitated with 270 mL acetonitrile/HPLC water (70:30), vortexed vigorously, and centrifuged at 3220×g for 15 minutes at 10° C. An aliquot of the supernatant organic solution was diluted in 0.1% Formic acid and spiked with stable labeled isotopes of kynurenine and tryptophan as internal standards prior to analysis. Kynurenine inhibition was determined by dividing the drug treated internal standard adjusted kynurenine counts by the positive control internal standard adjusted value. The no drug treated sample containing DMSO was used as the positive control. […] The IC50 and IC90 calculations were conducted in GraphPad Prism version 6.03.
# In order to determine compound potency in a human cellular system, human whole blood was collected from 9 subjects. […] The unbound inhibitor IC50 and IC90 values were computed by applying a conversion for the unbound fraction value in whole blood, 0.419.
# [9] = system: PancO2 pancreas cancer cells; experiment: PancO2 syngeneic model survival, combination with anti-CTLA4 antibody; type: in vivo, C57/Bl6 mice; settings: dead when tumor size reached 400 mm^3, anti-CTLA4 200 μg i.p., Compound 2 100 mg/kg BID
# Description: In vivo efficacy studies of IDO1 inhibitor were performed on PancO2 syngeneic tumor model of C57/Bl6 mice implanted sub-cutaneously essentially as described in Example II.5. Five million PancO2 pancreas cancer cells were implanted sub-cutaneously to 7 weeks old C57/Bl6 mice (day 0). […] Anti-CTLA4 (Clone 9 h10, 200 μg/mouse, i.p. in PBS) was administered at day 11, 14 and 17. […] Treatment was administered daily until the end of the study. Tumor volume was measured weekly using a caliper device and calculated with the following formula: Tumor volume=0.5×(length×width^2). Mice were considered as dead when tumor size reached 400 mm^3.
# [10] = system: 4T1 breast cancer cells; experiment: In vivo efficacy in 4T1 breast cancer syngeneic model; design: species or system Balb/c mice; settings: 100 mg/kg BID oral
# Description: In vivo efficacy studies were performed on 4T1 syngeneic tumor model of Balb/c mice implanted orthotopically in the mammary gland. One hundred thousand 4T1 breast cancer cells (ATCC® CRL-2539™)] were implanted orthotopically within the mammary gland of 7 weeks old Balb/c mice (day 0). Animals were randomized based on tumor size when tumor average reached 60 mm^3 (between day 7 and 11) into different treatment cohorts. The test compound was administered orally twice per day (approximately at 9 am and […]) starting the day of randomization. The test compounds were suspended into Methocel™ cellulose ether vehicle and sonicated before oral administration to animals using gavage needles. Treatment was administered daily until the end of the study. All experimental animals were monitored for body weight changes twice weekly. Tumor volume was measured twice a week by a caliper device and calculated with the following formula: Tumor volume=0.5×(length×width^2). Studies were terminated before tumor volumes reached […]. TGI (% tumor growth inhibition) was determined as […]
# [11] = system: PancO2 pancreas cancer cells; experiment: In vivo efficacy in PancO2 pancreatic cancer syngeneic model; design: species or system C57/Bl6 mice; settings: 200 mg/kg BID oral
# Description: In vivo efficacy studies were performed on PancO2 syngeneic tumor model of C57/Bl6 mice implanted sub-cutaneously. Five millions PancO2 pancreas cancer cells were implanted sub-cutaneously to 7 weeks old C57/Bl6 mice (day 0). Animals were randomized based on tumor size when tumor average reached 60 mm^3 (between day 10 and 12) into different treatment cohorts. The Compound was administered orally twice per day (approximately at 9 am and 5 pm) starting the day of randomization. The test compound shown below in the table was suspended into Methocel® vehicle and sonicated before oral administration to animals using gavage needles. Treatment was administered daily until the end of the study. All experimental animals were monitored for body weight changes weekly. Tumor volume was measured weekly using a caliper device and calculated with the following formula: Tumor volume=0.5×(length×width^2). Studies were terminated before tumor volumes reached […]. TGI (% tumor growth inhibition) was determined as
# Treatment was administered daily until the end of the study. Tumor volume was measured weekly using a caliper device and calculated with the following formula: Tumor volume=0.5×(length×width^2). Mice were considered as dead when tumor size reached 400 mm^3. […] SEM refers to standard error of measurement.
# [12] = system: CT26 tumors; experiment: CT26 syngeneic colon tumor model, combination with avelumab; type: in vivo, Balb/c mice; settings: for % TGI (D15) / % TGI (D17) / % TGI (D20): Compound 1 200 mg/kg BID, Avelumab 10 mg/kg
# From the text: FIGS. 5A-5E show combinatorial anti-tumor effects of an IDO1 inhibitor and an anti-PD-L1 (avelumab) in the sc CT26 syngeneic mouse colon tumor model in Balb/c mice. […] FIGS. 5B-5E show the individual tumor growth curves.
# Avelumab is a fully human anti-PD-L1 IgG1 monoclonal antibody, and thus, is not optimized for mouse.
# [13] = system: B16-F10 cells; experiment: B16-F10 melanoma model, combination with anti-PD-L1 and anti-4-1BB; type: in vivo, C57BL/6J mice; settings: PF-06840003 600 mg/kg BID, anti-4-1BB 1 mg/kg, anti-PD-L1 10 mg/kg d9, 12, 15, 18
# Description: B16-F10 cells were obtained from the ATCC and grown following instructions on ATCC's website. 2×10^5 cells were implanted in […] PBS sc in the right flank of female C57BL/6J (Jackson labs) mice. Mice (n=20) were randomized into treatment groups and treatment initiated on day 9 after implant at a mean tumor size of 60 mm3. Antibody treatments were given as i.p. injection on day 9, 12, 15 and 18. anti-PD-L1 antibody (clone 10F.9G2; rat IgG2b) was purchased from BioxCell. anti-4-1BB antibody (MAB9371; rat IgG1—murinized) was purchased from R&D systems. […] All animal experimentation was approved in advance by and executed following Pfizer's IACUC.
# [14] = system: panel of receptors, ion channels, transporters and enzymes (64 targets in total); experiment: Cerep Wide Ligand Profile Screen; settings: initial concentration of 200 μM
# Description: Three hits were noted (defined by a response greater that 50% of a maximal response) and follow up curves were performed by Cerep.
# [15] = Passive permeability in RRCK cells; type: in vitro ADME, canine; settings: dog, MDCK, read-out: intrinsic permeability, apical to basolateral (A to B)
# Description: In vitro Absorption: passive permeability was evaluated in Ralph-Russ canine kidney (RRCK) cells; high intrinsic permeability with an apical to basolateral (A to B) value of 25.5×10^−6 cm/sec. CNS Penetration: CNS distribution was investigated in male rats.
# T2 sequence (P48775 whole entry): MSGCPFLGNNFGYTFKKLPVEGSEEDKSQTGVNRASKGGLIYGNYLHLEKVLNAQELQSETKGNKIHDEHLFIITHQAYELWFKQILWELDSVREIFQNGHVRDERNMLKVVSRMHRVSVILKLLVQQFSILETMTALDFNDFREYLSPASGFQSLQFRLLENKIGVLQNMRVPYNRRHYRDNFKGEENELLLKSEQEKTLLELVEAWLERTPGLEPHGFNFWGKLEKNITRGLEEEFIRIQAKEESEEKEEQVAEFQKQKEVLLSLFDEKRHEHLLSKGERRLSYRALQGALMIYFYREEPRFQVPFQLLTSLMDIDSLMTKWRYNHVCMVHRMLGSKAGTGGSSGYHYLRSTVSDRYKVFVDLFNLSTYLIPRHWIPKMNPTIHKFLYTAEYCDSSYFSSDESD
# T1 sequence (P14902 whole entry): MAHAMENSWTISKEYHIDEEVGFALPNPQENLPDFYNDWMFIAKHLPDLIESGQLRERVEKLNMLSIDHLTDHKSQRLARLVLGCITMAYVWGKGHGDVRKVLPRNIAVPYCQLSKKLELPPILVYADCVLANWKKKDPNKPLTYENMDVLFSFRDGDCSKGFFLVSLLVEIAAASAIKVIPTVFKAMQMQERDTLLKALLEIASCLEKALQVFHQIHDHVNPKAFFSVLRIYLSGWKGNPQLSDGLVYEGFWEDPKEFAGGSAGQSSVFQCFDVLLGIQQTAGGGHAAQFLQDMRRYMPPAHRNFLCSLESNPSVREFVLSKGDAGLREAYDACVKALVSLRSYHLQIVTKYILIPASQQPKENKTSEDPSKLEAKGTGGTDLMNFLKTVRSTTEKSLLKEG
# Sequence of mouse TDO2 (P48776 whole entry): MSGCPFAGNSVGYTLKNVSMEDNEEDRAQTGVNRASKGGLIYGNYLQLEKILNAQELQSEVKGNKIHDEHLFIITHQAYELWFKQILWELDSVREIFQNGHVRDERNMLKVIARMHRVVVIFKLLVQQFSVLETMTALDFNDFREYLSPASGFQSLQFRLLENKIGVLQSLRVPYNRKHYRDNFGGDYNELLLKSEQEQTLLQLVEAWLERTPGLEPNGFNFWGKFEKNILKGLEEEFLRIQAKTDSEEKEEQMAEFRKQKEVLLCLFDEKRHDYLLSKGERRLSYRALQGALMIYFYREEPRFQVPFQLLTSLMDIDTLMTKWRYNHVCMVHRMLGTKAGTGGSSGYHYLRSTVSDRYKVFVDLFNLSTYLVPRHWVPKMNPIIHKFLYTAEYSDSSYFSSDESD
# Sequence of dog IDO1 (A0A8I3N1Y1 1-402): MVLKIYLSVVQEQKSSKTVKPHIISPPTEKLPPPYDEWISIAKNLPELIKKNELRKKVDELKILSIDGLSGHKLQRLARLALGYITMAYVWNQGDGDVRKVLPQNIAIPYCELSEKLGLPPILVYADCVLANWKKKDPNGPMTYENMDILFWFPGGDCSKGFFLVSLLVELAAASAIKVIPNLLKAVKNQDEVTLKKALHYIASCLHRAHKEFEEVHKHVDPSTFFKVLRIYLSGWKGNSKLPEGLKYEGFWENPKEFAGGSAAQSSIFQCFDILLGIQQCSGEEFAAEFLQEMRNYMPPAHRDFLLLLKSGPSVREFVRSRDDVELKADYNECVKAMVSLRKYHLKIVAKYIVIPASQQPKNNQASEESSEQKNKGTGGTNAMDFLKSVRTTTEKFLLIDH
# Sequence of mouse IDO1 (P28776 whole entry): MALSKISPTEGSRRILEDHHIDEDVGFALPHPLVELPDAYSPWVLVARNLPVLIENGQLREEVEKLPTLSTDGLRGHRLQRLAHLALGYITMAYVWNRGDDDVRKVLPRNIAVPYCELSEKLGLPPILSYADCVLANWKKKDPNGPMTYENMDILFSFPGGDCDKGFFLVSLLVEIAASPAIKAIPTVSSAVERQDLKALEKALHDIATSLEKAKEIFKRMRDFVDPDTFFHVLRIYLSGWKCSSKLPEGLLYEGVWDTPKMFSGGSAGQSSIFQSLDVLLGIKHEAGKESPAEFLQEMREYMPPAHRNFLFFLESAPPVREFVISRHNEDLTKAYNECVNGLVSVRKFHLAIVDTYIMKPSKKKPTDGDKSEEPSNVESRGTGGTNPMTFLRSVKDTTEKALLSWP
Compound,"mechanism of inhibition, preferred model fit [1]","mechanism of inhibition, preferred model fit [2]",IC50 [3] [µM],IC50 [4] [µM],IC50 [5] [µM],A172 and THP-1 cells TDO2 inhibition [7],inhibitory activity in any of the human or mouse TDO2 assays [7],% TGI (D15) [12] [%],% TGI (D17) [12] [%],% TGI (D20) [12] [%],also measured
"O=C1C[C@H](c2c[nH]c3ccc(F)cc23)C(=O)N1 [Compound 2, (−)-(R)-3-(5-fluoro-1H-indol-3-yl)pyrrolidine-2,5-dione]",uncompetitive inhibition,noncompetitive inhibition,0.73,> 50,> 50,no inhibition,did not display any significant inhibitory activity,–,–,–,IC50 [6]: 0.08 ± 0.05 µM; IC90 ([8]; conversion with unbound fraction in whole blood 0.419): 5.69 µM; % Survival at Day 55 [9]: 0%
"O=C1CC(c2c[nH]c3ccc(F)cc23)C(=O)N1 (racemic) [Compound 1, 3-(5-fluoro-1H-indol-3-yl)pyrrolidine-2,5-dione]",uncompetitive inhibition,noncompetitive inhibition,1.5,> 50,> 50,no inhibition,did not display any significant inhibitory activity,38,41,34,IC90 [8]: 10.7 µM; Mean tumor volume on day 25 [10]: 443.7 mm^3; TGI (Tumor growth inhibition) ([10]; day 25): 43.4%; Mean tumor volume on day 42 [11]: 457.0 mm^3; TGI (Tumor growth inhibition) ([11]; day 42): 26.2%; % TGI (D17) [13]: 32%; % TGI (D20) [13]: 49%; hits (response greater than 50% of a maximal response) in off target panel [14]: Three; Papp A→B [15]: 25.5 ×10⁻⁶ cm/s
Avelumab: fully human anti-PD-L1 IgG1 monoclonal antibody,–,–,–,–,–,–,–,54,59,51,"tumor growth inhibition (TGI), summary [12]: about 50%"
